Data taken from patent publication US9783499B2, “Quinoline derivatives and their applications” (Shenyang Pharmaceutical University, priority 2012, dated 2017).

Legend:
Format in all cases: cell-based
Conditions in all cases: 72 hours
[1] = system: H460 (human lung cancer cell); experiment: In vitro anti-tumor cellular activity (MTT), H460
Protocol: (§1) After pouring the cell dissociation buffer to the centrifugetube, nutrient solution was added to stop digestion. The centrifugetube were centrifuged for 10 min under 800 r/min, the liquid supernatant was removed, 5 mL culture solution was added, after mixing by pipetting the cell, took 10 μL cell suspension to the cell counting plat, and adjusted the cell concentration to 10^4/well. Among the 96 wells, A1 is empty, 100 μL of cell suspension were added to the other wells. The 96 well plates were incubated in the incubator for 24 h. […] The 96-well plates were placed in an incubator and cultivated for 72 hours. (3) The culture media containing the compounds in the 96-well plates was discarded, and the cells were washed with phosphate buffered solution (PBS) twice. Each well was added with 100 μL MTT (tetrazole) (0.5 mg/mL), and then placed in an incubator to incubate for 4 hours, after which MTT solution was discarded and 100 μL dimethyl sulfoxide was added thereto.

[2] = system: HT-29 (colon cancer cell); experiment: In vitro anti-tumor cellular activity (MTT), HT-29
Protocol: as §1

[3] = system: MKN-45 (human gastric carcinoma cell); experiment: In vitro anti-tumor cellular activity (MTT), MKN-45
Protocol: as §1

[4] = system: SMMC-7721 (hepatoma cell); experiment: In vitro anti-tumor cellular activity (MTT), SMMC-7721
Protocol: as §1

[5] = system: MDA-MB-231 (human beast cancer cell); experiment: In vitro anti-tumor cellular activity (MTT), MDA-MB-231
Protocol: as §1

[6] = system: U87MG (Human malignant glioblastoma cell); experiment: In vitro anti-tumor cellular activity (MTT), U87MG
Protocol: as §1

Compound	H460 IC50 [1] [µg/mL]	HT-29 IC50 [2] [µg/mL]	MKN-45 IC50 [3] [µg/mL]	SMMC-7721 IC50 [4] [µg/mL]	MDA-MB-231 IC50 [5] [µg/mL]	U87MG IC50 [6] [µg/mL]
N.N.[Cl][Pt][Cl] [Cisplatin, reference compound]	0.23	1.0	0.68	0.90	0.46	0.19
COc1cc2c(Oc3ccc(NC(=O)N/N=C/c4ccccc4)cc3F)ccnc2cc1OCCCN1CCC(C)CC1 [Example 2, (E)-N^1-(3-fluoro-4-(6-methoxy-7-(3-(4-methylpiperidin-1-yl)propoxy)quinoline-4-yloxy)phenyl)-N^4-(benzaldehyde)semicarbazone]	0.15	0.17	0.18	0.43	0.12	0.31
COc1cc2c(Oc3ccc(NC(=O)N/N=C/c4ccccc4)cc3F)ccnc2cc1OCCCN1CCOCC1 [Example 3, (E)-N^1-(3-fluoro-4-(6-methoxy-7-(3-(morpholin-4-yl)propoxy)quinoline-4-yloxy)phenyl)-N^4-(benzaldehyde)semicarbazone]	0.11	0.42	0.12	2.1	0.13	0.33
COc1cc2c(Oc3ccc(NC(=O)N/N=C/c4ccccc4)cc3F)ccnc2cc1OCCCN1CCN(C)CC1 [Example 4, (E)-N^1-(3-fluoro-4-(6-methoxy-7-(3-(4-methylpiperazin-1-yl)propoxy)quinoline-4-lyoxy)phenyl)-N^4-(benzaldehyde)semicarbazone]	0.084	0.093	0.11	0.23	0.066	0.25
COc1cc2c(Oc3ccc(NC(=O)N/N=C/c4ccccc4)cc3F)ccnc2cc1OCCCN1CCCCC1 [Example 5, (E)-N^1-(3-fluoro-4-(6-methoxy-7-(3-(piperidin-1-yl)propoxy)quinoline-4-yloxy)phenyl)-N^4-(benzaldehyde)semicarbazone]	0.012	0.0088	0.012	0.16	0.010	0.19
COc1cccc(/C=N/NC(=O)Nc2ccc(Oc3ccnc4cc(OCCCN5CCC(C)CC5)c(OC)cc34)c(F)c2)c1 [Example 7]	0.0012	0.0006	0.0021	0.13	0.011	0.10
COc1cc2c(Oc3ccc(NC(=O)N/N=C/c4ccc(F)cc4)cc3F)ccnc2cc1OCCCN1CCC(C)CC1 [Example 10, (E)-N^1-(3-fluoro-4-(6-methoxy-7-(3-(4-methylpiperidin-1-yl)propoxy)quinoline-4-lyoxy)phenyl)-N^4-(4-fluorobenzaldehyde)semicarbazone]	0.0092	0.0015	0.038	0.16	0.011	0.019
COc1cc2c(Oc3ccc(NC(=O)NN=Cc4ccc(F)cc4Cl)cc3F)ccnc2cc1OCCCN1CCOCC1 [Example 14, (E)-N^1-(3-fluoro-4-(6-methoxy-7-(3-(morpholin-4-yl)propoxy)quinoline-4-yloxy)phenyl)-N^4-(2-chloro-4-fluorobenzaldehyde)semicarbazone]	1.2	0.81	0.65	1.5	0.90	1.4
COc1cc2c(Oc3ccc(NC(=O)N/N=C(\C)c4ccccc4)cc3F)ccnc2cc1OCCCN1CCCCC1 [Example 17, (E)-N^1-(3-fluoro-4-(6-methoxy-7-(3-(piperidin-1-yl)propoxy)quinoline-4-yloxy)phenyl)-N^4-(acetophenone)semicarbazone]	0.069	0.0057	0.072	0.13	0.071	0.24
COc1cc2c(Oc3ccc(NC(=O)N/N=C/c4ccc(Cl)cc4Cl)cc3F)ccnc2cc1OCCCN1CCCC1 [Example 19, (E)-N^1-(3-fluoro-4-(6-methoxy-7-(3-(pyrrolidin-1-yl)propox)quinoline-4-yloxy)phenyl)-N^4-(2,4-dichlorobenzaldehyde)semicarbozone]	0.96	1.4	0.71	0.97	1.2	1.9
CCC(=NNC(=O)Nc1ccc(Oc2ccnc3cc(OCCCN4CCCCC4)c(OC)cc23)c(F)c1)c1ccccc1 [Example 30, (E)-N^1-(3-fluoro-4-(6-methoxy-7-(3-(piperidin-1-yl)propoxy)quinoline-4-yloxy)phenyl)-N^4-(propiophenone)thiosemicarbazone]	0.0012		0.0020	0.44	0.0021	0.051
COc1cc2c(Oc3ccc(NC(=S)NN=Cc4ccc(Cl)cc4Cl)cc3F)ccnc2cc1OCCCN1CCN(C)CC1 [Example 40, (E)-N^1-(3-fluoro-4-(6-methoxy-7-(3-(4-methyl-1-piperazinyl)propoxy)quinoline-4-yloxy)phenyl)-N^4-(2,4-dichlorobenzaldehyde)thiosemicarbazone]	2.8	1.9	1.5	3.1	1.9	
COc1cc2c(Oc3ccc(NC(=S)NN=Cc4ccc(F)cc4Cl)cc3F)ccnc2cc1OCCCN1CCN(C)CC1 [Example 42, (E)-N^1-(3-fluoro-4-(6-methoxy-7-(3-(4-methyl-1-piperazinyl)propoxy)quinoline-4-yloxy)phenyl)-N^4-(2-chloro-4-fluorobenzaldehyde)thiosemicarbazone]	0.38		0.34	0.96	0.29	1.0
(E)-N^1-(3-fluoro-4-(6-methoxy-7-(3-(morpholin-4-yl)propoxy)quinoline-4-oxy)phenyl)-N^4-(3,4-difluorobenzaldehyde)semicarbazone [Example 23]	3.6		5.7	5.9	2.9	5.6
(E)-N^1-(3-fluoro-4-(6-methoxy-7-(3-(piperidin-1-yl)propoxy)quinoline-4-yloxy)phenyl)-N^4-(2-chloro-4-fluorobenzaldehyde)thiosemicarbazone [Example 43]	0.0067	0.0031		0.069	0.0029	0.092
